Key:
Format in all cases: functional
CCRF-CEM = assay: Growth inhibition of human CCRF-CEM cells assessed as cell growth at 10 uM incubated for 48 hrs by sulforhodamine B assay relative to control; conditions: read-out: Activity
SK-OV-3 = assay: Growth inhibition of human SKOV3 cells assessed as cell growth at 10 uM incubated for 48 hrs by sulforhodamine B assay relative to control; conditions: SK-OV-3, 48 h, read-out: Activity
DU-145 = assay: Growth inhibition of human DU145 cells assessed as cell growth at 10 uM incubated for 48 hrs by sulforhodamine B assay relative to control; conditions: DU-145, 48 h, read-out: Activity
SNB-75 = assay: Growth inhibition of human SNB75 cells assessed as cell growth at 10 uM incubated for 48 hrs by sulforhodamine B assay relative to control; conditions: SNB-75, 48 h, read-out: Activity
ACHN = assay: Growth inhibition of human ACHN cells assessed as cell growth at 10 uM incubated for 48 hrs by sulforhodamine B assay relative to control; conditions: read-out: Activity
HCT-116 = assay: Growth inhibition of human HCT116 cells assessed as cell growth at 10 uM incubated for 48 hrs by sulforhodamine B assay relative to control; conditions: HCT-116, 48 h, read-out: Activity
HOP-62 = assay: Growth inhibition of human HOP62 cells assessed as cell growth at 10 uM incubated for 48 hrs by sulforhodamine B assay relative to control; conditions: HOP-62, 48 h, read-out: Activity
MDA-MB-231 = assay: Growth inhibition of human MDA-MB-231 cells assessed as cell growth at 10 uM incubated for 48 hrs by sulforhodamine B assay relative to control; conditions: MDA-MB-231, 48 h, read-out: Activity
T47D = assay: Growth inhibition of human T47D cells assessed as cell growth at 10 uM incubated for 48 hrs by sulforhodamine B assay relative to control; conditions: read-out: Activity
SF-539 = assay: Growth inhibition of human SF539 cells assessed as cell growth at 10 uM incubated for 48 hrs by sulforhodamine B assay relative to control; conditions: SF-539, 48 h, read-out: Activity
KM12 = assay: Growth inhibition of human KM12 cells assessed as cell growth at 10 uM incubated for 48 hrs by sulforhodamine B assay relative to control; conditions: KM12, 48 h, read-out: Activity
K562 = assay: Growth inhibition of human K562 cells assessed as cell growth at 10 uM incubated for 48 hrs by sulforhodamine B assay relative to control; conditions: K562, 48 h, read-out: Activity
MOLT-4 = assay: Growth inhibition of human MOLT4 cells assessed as cell growth at 10 uM incubated for 48 hrs by sulforhodamine B assay relative to control; conditions: MOLT-4, 48 h, read-out: Activity
SNB-19 = assay: Growth inhibition of human SNB19 cells assessed as cell growth at 10 uM incubated for 48 hrs by sulforhodamine B assay relative to control; conditions: SNB-19, 48 h, read-out: Activity
UACC-257 = assay: Growth inhibition of human UACC257 cells assessed as cell growth at 10 uM incubated for 48 hrs by sulforhodamine B assay relative to control; conditions: UACC-257, 48 h, read-out: Activity
IGROV-1 = assay: Growth inhibition of human IGROV1 cells assessed as cell growth at 10 uM incubated for 48 hrs by sulforhodamine B assay relative to control; conditions: IGROV-1, 48 h, read-out: Activity
HL-60(TB) = assay: Growth inhibition of human HL-60(TB) cells assessed as cell growth at 10 uM incubated for 48 hrs by sulforhodamine B assay relative to control; conditions: HL-60, 48 h, read-out: Activity
PC-3 = assay: Growth inhibition of human PC3 cells assessed as cell growth at 10 uM incubated for 48 hrs by sulforhodamine B assay relative to control; conditions: PC-3, 48 h, read-out: Activity
A549 = assay: Growth inhibition of human A549/ATCC cells assessed as cell growth at 10 uM incubated for 48 hrs by sulforhodamine B assay relative to control; conditions: A549, 48 h, read-out: Activity
NCI-H322M = assay: Growth inhibition of human NCI-H322M cells assessed as cell growth at 10 uM incubated for 48 hrs by sulforhodamine B assay relative to control; conditions: read-out: Activity
A498 = assay: Growth inhibition of human A498 cells assessed as cell growth at 10 uM incubated for 48 hrs by sulforhodamine B assay relative to control; conditions: A498, 48 h, read-out: Activity
OVCAR-5 = assay: Growth inhibition of human OVCAR5 cells assessed as cell growth at 10 uM incubated for 48 hrs by sulforhodamine B assay relative to control; conditions: OVCAR-5, 48 h, read-out: Activity
OVCAR-3 = assay: Growth inhibition of human OVCAR3 cells assessed as cell growth at 10 uM incubated for 48 hrs by sulforhodamine B assay relative to control; conditions: OVCAR-3, 48 h, read-out: Activity
UACC-62 = assay: Growth inhibition of human UACC62 cells assessed as cell growth at 10 uM incubated for 48 hrs by sulforhodamine B assay relative to control; conditions: UACC-62, 48 h, read-out: Activity
NCI-H226 = assay: Growth inhibition of human NCI-H226 cells assessed as cell growth at 10 uM incubated for 48 hrs by sulforhodamine B assay relative to control; conditions: NCI-H226, 48 h, read-out: Activity
RPMI-8226 = assay: Growth inhibition of human RPMI8226 cells assessed as cell growth at 10 uM incubated for 48 hrs by sulforhodamine B assay relative to control; conditions: RPMI-8226, 48 h, read-out: Activity
SF-295 = assay: Growth inhibition of human SF295 cells assessed as cell growth at 10 uM incubated for 48 hrs by sulforhodamine B assay relative to control; conditions: SF-295, 48 h, read-out: Activity
U-251 = assay: Growth inhibition of human U251 cells assessed as cell growth at 10 uM incubated for 48 hrs by sulforhodamine B assay relative to control; conditions: U-251, 48 h, read-out: Activity
BT-549 = assay: Growth inhibition of human BT549 cells assessed as cell growth at 10 uM incubated for 48 hrs by sulforhodamine B assay relative to control; conditions: BT-549, 48 h, read-out: Activity
MDA-MB-468 = assay: Growth inhibition of human MDA-MB-468 cells assessed as cell growth at 10 uM incubated for 48 hrs by sulforhodamine B assay relative to control; conditions: MDA-MB-468, 48 h, read-out: Activity
SK-MEL-28 = assay: Growth inhibition of human SK-MEL-28 cells assessed as cell growth at 10 uM incubated for 48 hrs by sulforhodamine B assay relative to control; conditions: SK-MEL-28, 48 h, read-out: Activity
NCI/ADR-RES = assay: Growth inhibition of human NCI/ADR-RES cells assessed as cell growth at 10 uM incubated for 48 hrs by sulforhodamine B assay relative to control; conditions: read-out: Activity
SR = assay: Growth inhibition of human SR cells assessed as cell growth at 10 uM incubated for 48 hrs by sulforhodamine B assay relative to control; conditions: read-out: Activity

| Structure (SMILES) | growth at 10 µM (CCRF-CEM) [%] | growth at 10 µM (SK-OV-3) [%] | growth at 10 µM (DU-145) [%] | growth at 10 µM (SNB-75) [%] | growth at 10 µM (ACHN) [%] | growth at 10 µM (HCT-116) [%] | growth at 10 µM (HOP-62) [%] | growth at 10 µM (MDA-MB-231) [%] | growth at 10 µM (T47D) [%] | growth at 10 µM (SF-539) [%] | growth at 10 µM (KM12) [%] | growth at 10 µM (K562) [%] | growth at 10 µM (MOLT-4) [%] | growth at 10 µM (SNB-19) [%] | growth at 10 µM (UACC-257) [%] | growth at 10 µM (IGROV-1) [%] | growth at 10 µM (HL-60(TB)) [%] | growth at 10 µM (PC-3) [%] | growth at 10 µM (A549) [%] | growth at 10 µM (NCI-H322M) [%] | further results |
| --- | --- | --- | --- | --- | --- | --- | --- | --- | --- | --- | --- | --- | --- | --- | --- | --- | --- | --- | --- | --- | --- |
| COc1cc(Cl)cc(-c2nn(-c3cccc(NC(=O)Nc4cc(C(F)(F)F)cc(C(F)(F)F)c4)c3)cc2-c2ccncc2)c1 | -22 | 6.84 | 13.1 | 11.3 | 10.3 | -4.6 | -41 | -75 | 6.56 | -17.7 | 12.2 | 6.4 | -24.6 | 26.1 | -25.6 | 23 | -20.1 | -6.27 | 5.14 | 11 | growth at 10 µM (A498): -21.6%; growth at 10 µM (OVCAR-5): 21.6%; growth at 10 µM (OVCAR-3): -1.62%; growth at 10 µM (UACC-62): -21.2%; growth at 10 µM (NCI-H226): -5.97%; growth at 10 µM (RPMI-8226): -17.5%; growth at 10 µM (SF-295): -43.2%; growth at 10 µM (U-251): -58%; growth at 10 µM (BT-549): 6.61%; growth at 10 µM (MDA-MB-468): -2.95%; growth at 10 µM (SK-MEL-28): 6.55%; growth at 10 µM (NCI/ADR-RES): 2.37%; growth at 10 µM (SR): -37.9% |
| COc1cc(Cl)cc(-c2nn(-c3cccc(NC(=O)Nc4cccc(C(F)(F)F)c4)c3)cc2-c2ccncc2)c1 | 3.34 | 14.2 | 15.9 | 12.5 | 5.44 | 5.07 | 15.5 | -9.21 | -0.45 | 17 | 9.81 | 7.61 | -9.16 | 16.1 | -11.7 | 28.9 | -7.89 | -9.92 | 8.08 | 26.2 | growth at 10 µM (A498): -6.74%; growth at 10 µM (OVCAR-5): 34.1%; growth at 10 µM (OVCAR-3): -0.41%; growth at 10 µM (UACC-62): -11.5%; growth at 10 µM (NCI-H226): 3.94%; growth at 10 µM (RPMI-8226): -14.2%; growth at 10 µM (SF-295): -7.87%; growth at 10 µM (U-251): 4.59%; growth at 10 µM (BT-549): 12.9%; growth at 10 µM (MDA-MB-468): 6.89%; growth at 10 µM (SK-MEL-28): 14.1%; growth at 10 µM (NCI/ADR-RES): 3.58%; growth at 10 µM (SR): -13.5% |

— ChEMBL document CHEMBL4308841, “Synthesis, in vitro antiproliferative activity, and kinase inhibitory effects of pyrazole-containing diarylureas and diarylamides” (Eur J Med Chem, 2018)
